Measurements: ChEMBL document CHEMBL1201862, “PubChem BioAssay data set” (2004)
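Following 48 hours of exposure in 96-well plates, responses at five concentrations were used to interpolate endpoints linearly. Abbreviation: GI50, concentration required for 50% inhibition of growth.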 Activity calls are given as the source filed them. Rule as the data show it: active = GI50 up to about 1.1 µM and inactive = higher.

Key:
Assay in all cases: DTP human tumour cell line panel, 48 h
[1] = test system: MDA-MB-231
[2] = test system: SN12C
[3] = test system: RXF 393
[4] = test system: OVCAR-4
[5] = test system: UO-31
[6] = test system: NCI-H23
[7] = test system: NCI-H460
[8] = test system: SK-MEL-28
[9] = test system: SNB-19
[10] = test system: OVCAR-5
[11] = test system: SF-295
[12] = test system: PC-3
[13] = test system: HOP-92
[14] = test system: UACC-257
[15] = test system: HT-29
[16] = test system: CCRF-CEM
[17] = test system: TK-10
[18] = test system: CAKI-1
[19] = test system: SF-268

Measured: GI50

COC(=O)c1c(C)cccc1C1CN=NC12Cc1ccccc1C2=O (stereo unspecified)
inactive: [1] 45.7 µM | [2] > 100 µM | [3] > 100 µM | [4] > 92.3 µM | [5] 33.1 µM | [6] 60.4 µM | [7] > 75.9 µM | [8] > 71.1 µM | [9] > 100 µM | [10] > 100 µM | [11] 62.2 µM | [12] 78.5 µM | [13] > 57.7 µM | [14] 36.1 µM | [15] > 100 µM | [16] 38.6 µM | [17] > 100 µM | [18] 98.6 µM | [19] > 53 µM

O=C1c2c(Cl)c(Cl)c(Cl)c(Cl)c2C(=O)N1CCN(c1c(Cl)ssc1=O)c1c(Cl)ssc1=O
inactive: [1] 36.1 µM | [2] 23.4 µM | [3] 16.4 µM | [4] 18.2 µM | [5] 18.2 µM | [6] 40.9 µM | [7] 32.1 µM | [8] 58.3 µM | [9] > 100 µM | [10] 50.1 µM | [11] > 100 µM | [12] 22.9 µM | [13] 20.1 µM | [14] 16.9 µM | [15] 19.5 µM | [16] 4.36 µM | [17] 18.7 µM | [18] 17.5 µM | [19] 71.9 µM

OC12CC3c4ccccc4NC3C3Oc4cccc5c4C31CCN(CC1CC1)C2C5 (stereo unspecified)
inactive: [1] 17.9 µM | [2] 17.2 µM | [3] 14.3 µM | [4] 20.7 µM | [5] 15.8 µM | [6] 13 µM | [7] 17.6 µM | [8] 13.8 µM | [9] 18.2 µM | [10] 21.1 µM | [11] 30.9 µM | [12] 16.7 µM | [13] 11.4 µM | [14] 17.8 µM | [15] 15.5 µM | [16] 23.4 µM | [17] 17.3 µM | [18] 17.6 µM | [19] 18.2 µM

Cc1nnc(N)nc1/C=C/c1c(O)ccc2ccccc12
inactive: [1] > 100 µM | [2] 37.5 µM | [3] 15.6 µM | [4] 20 µM | [5] 18.8 µM | [6] 24.8 µM | [7] 24.5 µM | [8] 29.7 µM | [9] 27 µM | [10] 26.5 µM | [11] 18.6 µM | [12] 22.8 µM | [13] 21.3 µM | [14] 32.2 µM | [15] 27 µM | [16] 15.5 µM | [17] 54.8 µM | [18] 36.4 µM | [19] 28.7 µM
